pKi: −log10 of the molar value.
Molecular target: T1, human D3-receptor (Homo sapiens, UniProt P35462)
T1 construct: host or cells: CCL 1,3 mouse fibroblasts
Experiment: D3 binding test (125iodosulpiride displacement)
Settings: cloned human D3 receptor in CCL 1,3 mouse fibroblast membranes; 0.1 nM 125iodosulpiride; read-out: Ki value for the binding toward the D3 receptor
Protocol: Cloned human D3-receptor-expressing CCL 1,3 mouse fibroblasts, obtainable from Res. Biochemicals Internat. One Strathmore Rd., Natick, Mass. 01760-2418 USA, were used for the binding studies.
The D3-expressing cells were multiplied in RPMI-1640 containing 10% fetal calf serum (GIBCO No. 041-32400 N); 100 U of penicillin/ml and 0.2% streptomycin (GIBO BRL, Gaithersburg, Md., USA). After 48 h, the cells were washed with PBS and incubated for 5 min with 0.05% trypsin-containing PBS. After that, the solution was neutralized with medium and the cells were collected by centrifuging at 300 g. In order to lyse the cells, the pellet was washed briefly with lysis buffer (5 mM Tris-HCl, pH 7.4, containing 10% glycerol) and after that incubated, at 4° C. for 30 min, at a concentration of 10^7 cells/ml of lysis buffer. […]
For the D3-receptor binding test, the membranes were suspended in incubation buffer (50 mM Tris-HCl, pH 7.4, containing 120 mM NaCl, 5 mM KC1, 2 mM CaCl2, 2 mM MgCl2, 10 μM quinolinol, 0.1% ascorbic acid and 0.1% BSA), at a concentration of approx. 10^6 cells/250 μl of test mixture, and incubated at 30° C. […] 0.1 nM ^125iodosulpiride in the presence and absence of the test substance. The nonspecific binding was determined using 10^−6 M spiperone. […]
The Ki values were determined by means of nonlinear regression analysis using the LIGAND program. […]

T1 sequence (P35462 whole entry): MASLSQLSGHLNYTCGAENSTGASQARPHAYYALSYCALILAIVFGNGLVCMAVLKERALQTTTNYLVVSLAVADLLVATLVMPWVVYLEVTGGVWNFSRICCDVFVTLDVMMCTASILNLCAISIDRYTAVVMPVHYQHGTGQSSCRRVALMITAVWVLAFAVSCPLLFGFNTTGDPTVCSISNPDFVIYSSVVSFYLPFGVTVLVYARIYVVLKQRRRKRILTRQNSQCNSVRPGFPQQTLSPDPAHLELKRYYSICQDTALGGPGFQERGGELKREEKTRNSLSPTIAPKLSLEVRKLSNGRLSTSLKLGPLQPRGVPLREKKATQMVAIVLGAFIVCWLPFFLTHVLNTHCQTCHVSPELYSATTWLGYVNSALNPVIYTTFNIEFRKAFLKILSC

For `Cn1c(SCCCN2CCC3c4c(Br)cccc4CCC32)nnc1-c1ccccc1` (mixture of isomers) [Example 1, (cis/trans) 9-Bromo-3-{3-[(4-methyl-5-phenyl-4H-1,2,4-triazol-3-yl)sulfanyl]propyl}-2,3,3a,4,5,9b-hexahydro-1H-benzo[e]indole], the pKi was 7.30.
